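The compound was tested at five concentrations on cells cultured in 96-well plates, with a 48-hour exposure period. The concentration for full growth arrest is given as TGI.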
What was measured:
Assay in all cases: NCI tumour cell line growth inhibition, 48 h
[1] = tested on: HOP-18 NSCLC
[2] = tested on: LXFL 529 NSCLC
[3] = tested on: M19-MEL melanoma
[4] = tested on: SNB-78 CNS
[5] = tested on: XF 498 CNS
[6] = tested on: DMS 114 small cell lung
[7] = tested on: KM20L2 colon
[8] = tested on: P388 leukemia
[9] = tested on: P388/ADR leukemia
[10] = tested on: SN12K1 renal
[11] = tested on: RXF-631 renal

Row | Compound | TGI [1] | TGI [2] | TGI [3] | TGI [4] | TGI [5] | TGI [6] | TGI [7] | TGI [8] | TGI [9] | TGI [10] | TGI [11]
1 | CCCN(CCC)c1c([N+](=O)[O-])cc(C(=O)N(CCO)CCO)cc1[N+](=O)[O-] | > 100 µM | > 100 µM | > 100 µM | > 100 µM | > 100 µM |  |  |  |  |  | 
2 | COc1ccc(C(=O)N/N=C/c2c(C)n(C)n(-c3ccccc3)c2=O)cc1 | > 100 µM | > 100 µM | > 100 µM | > 100 µM | > 100 µM | > 100 µM | > 100 µM |  |  |  | 
3 | O=C(OC/C=C1C=C(OC(=O)c2ccccc2)/C(=N/N(C(=O)c2ccccc2)c2ccccc2)O\1)c1ccccc1 |  | 4.4 µM | 18.8 µM | 67.1 µM | 33.7 µM | 28.3 µM |  |  |  |  | 
4 | COc1ccc(C2C3CCCC(C3=O)C(c3ccc(OC)cc3)N2N=O)cc1 (stereo not given) | 31 µM |  | 99.2 µM | > 100 µM | 72.4 µM | 47.9 µM | > 100 µM | 42.9 µM | 38.3 µM | > 79.6 µM | 
5 | CC(CN(C)C)C(=O)c1ccccc1 (stereo not given) | > 100 µM | 39.8 µM | 35.4 µM | > 64 µM | 45 µM | > 57.8 µM | > 87.5 µM |  |  |  | > 100 µM
6 | OC12c3ccccc3C3CCC4(OCCO4)C3C1c1ccccc12 (stereo not given) | > 100 µM | > 100 µM | > 100 µM | > 100 µM |  | > 100 µM | > 100 µM |  |  |  | 

From PubChem BioAssay (NCI)
